Consider two compounds from patent US20150065440A1 (Progen Pharmaceuticals Limited, priority 2007, published 2015).

Assay [1] deals with HSV-1. Kind of assay: Anti-HSV screening assay (viral plaques), HSV-1. Format: cell-based. As to conditions: 100 μg/mL, viral plaques relative to mock treated controls. The protocol:
(§1) African green monkey kidney (GMK AH1) cells^46 were cultured in Eagle's minimum essential medium (EMEM) supplemented with 2% calf serum, 0.05% Primaton RL substance (Kraft Inc., Norwich, USA) and antibiotics. Human epidermoid carcinoma (HEp-2) cells were cultured in Dulbecco's modified EMEM (DMEM) supplemented with 10% fetal calf serum and antibiotics. […] The RSV strain A-2^50 was used. The RSV stock was prepared as described by Hallak et al.^51 and stored at −70° C. in the presence of 40% sucrose^52.
(§2) The viral infectivity (the plaque number-reduction) assay and the plaque size-reduction assay were carried out as described previously^17. […] Subsequently, the cells were washed with 2 mL of EMEM and overlaid with 1% methylcellulose solution in EMEM. The plaques were visualized by staining with crystal violet solution after 2 (HSV-2) or 3 (HSV-1) days of incubation at 37° C. […] When the compounds were screened for anti-HSV or anti-RSV activity, mixtures of 200 PFU of the virus and the test compound (100 μg/mL) in serum-free EMEM were incubated for 10 min at room temperature before addition to cells and during the entire period of viral infection of cells and the development of viral plaques. In the plaque size-reduction assay, the compounds were added to cells (in methylcellulose overlay medium) after 2 h period of virus infection of cells in the absence of the inhibitor. After 2-3 days of incubation at 37° C., the viral plaques were visualized by staining the cells with 1% solution of crystal violet. For each compound tested, the images of twenty neighboring plaques were captured using a Leica DC300 digital camera attached to a Leitz-Wetzlar Diavert microscope. The area of each plaque was determined using IM500 image software (Leica). Similar protocols were used for RSV, except that the assays were performed in HEp-2 cells and DMEM supplemented with 2% heat-inactivated fetal calf serum was used instead of EMEM.

In assay [2] the target is T1, VEGF (Homo sapiens, UniProt P15692).
T1 sequence (P15692 207-395): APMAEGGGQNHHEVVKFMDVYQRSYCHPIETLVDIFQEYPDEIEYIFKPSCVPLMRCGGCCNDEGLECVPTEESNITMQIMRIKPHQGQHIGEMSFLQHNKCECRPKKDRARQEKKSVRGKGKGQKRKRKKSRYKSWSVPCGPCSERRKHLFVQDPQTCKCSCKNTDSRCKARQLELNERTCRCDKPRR
The assay is described as follows: Growth factor binding assay (SPR solution affinity), VEGF. As to conditions: HBS-EP buffer, 25° C. A digest of the protocol:
(§3)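 Kd measured by SPR solution affinity: fixed growth factor with varying ligand competing for heparin-coated sensorchip, 25 °C. Buffer HBS-EP pH 7.4 (150 mM NaCl) for FGF-1 and VEGF; FGF-2 with 0.3 M NaCl. Duplicate values averaged.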

Assay [3] concerns the target FGF-2 (Homo sapiens, UniProt P09038). The assay is described as follows: Growth factor binding assay (SPR solution affinity), FGF-2. As to conditions: SPR, HBS-EP buffer containing 0.3 M NaCl, 25° C.; read-out: Kd FGF-2. The procedure, abridged: as §3
Assay [4] deals with RSV. The assay is described as follows: Anti-RSV screening assay (viral plaques). As to conditions: 100 μg/mL, viral plaques relative to mock treated controls. Format: cell-based. The protocol: as §1, §2
Assay [5] addresses T2, recombinant human heparanase (Homo sapiens, UniProt Q9Y251).
T2 sequence (Q9Y251 158-543 limits assumed): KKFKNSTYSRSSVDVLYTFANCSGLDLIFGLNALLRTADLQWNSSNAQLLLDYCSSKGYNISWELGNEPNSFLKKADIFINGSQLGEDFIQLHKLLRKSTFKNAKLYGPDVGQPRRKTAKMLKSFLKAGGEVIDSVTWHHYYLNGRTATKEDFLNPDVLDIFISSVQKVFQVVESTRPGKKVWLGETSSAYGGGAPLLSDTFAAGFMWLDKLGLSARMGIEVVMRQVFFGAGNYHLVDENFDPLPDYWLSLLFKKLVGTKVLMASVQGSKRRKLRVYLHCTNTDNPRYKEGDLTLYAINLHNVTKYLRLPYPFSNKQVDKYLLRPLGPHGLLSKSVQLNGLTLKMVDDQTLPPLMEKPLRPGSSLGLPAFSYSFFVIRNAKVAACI
T2 sequence (Q9Y251 36-109 limits assumed): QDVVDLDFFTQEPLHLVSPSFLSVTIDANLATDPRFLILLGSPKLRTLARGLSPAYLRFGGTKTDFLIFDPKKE
The assay is described as follows: Heparanase inhibition assay (fondaparinux cleavage, WST-1). Particulars: read-out: Ki Heparanase; IC50 converted into Ki; fondaparinux 100 μM, pH 5.0. (Tetrazolium dyes change colour on reduction, which living cells bring about.)

Assay [6] deals with HSV-2. Kind of assay: Anti-HSV screening assay (viral plaques), HSV-2. Format: cell-based. Particulars: 100 μg/mL, viral plaques relative to mock treated controls. As for the experimental part:
as §1, §2

Assay [7] concerns the target FGF-1 (Homo sapiens, UniProt P05230). Kind of assay: Growth factor binding assay (SPR solution affinity), FGF-1. Particulars: SPR, HBS-EP buffer, 25° C.; read-out: Kd FGF-1.
In assay [8] the test system is HUVECs. Kind of assay: Matrigel microtubule formation assay. Format: cell-based, human. As to conditions: 10 μM, relative to controls. The protocol:
(§4) Medium for the proliferation studies was prepared using EGM with 2% FBS and gentamicin only. In a later study, complete EGM was used for the VEGF groups in an attempt to enhance the proliferative index of VEGF-stimulated groups. For the tube formation assay, complete medium was used with only heparin omitted. Compounds under investigation were weighed out from powder stocks and diluted in PBS to 10 mM stock solutions and stored at −80° C. For experiments, compounds were subsequently diluted in EBM-2 medium (supplemented with 2% FBS and gentamicin) to various working concentration as required.
The tube formation assay was performed essentially as described by Malinda et al., with modifications.^41 HUVECs in the fourth or fifth passage at 70-80% confluence were harvested and resuspended in Lonza endothelial growth medium (EGM2) containing all supplements as directed by manufacturer, except heparin, at a cell density of 4×10^5 cells per mL. For each set of triplicate wells, 200 μL of cells (4×10^5/mL) were treated with an equal volume of compound to obtain final concentrations of 10, 50 or 100 μM (thus ensuring 1×300 μL are available for each condition). A 100 μL aliquot of cells was then plated onto 96-well plates pre-coated with growth factor reduced Matrigel™ (50 μL for 30 min followed by a further 30 μL for 1 h) and incubated for 18-22 h. Tube formation was examined by phase-contrast microscopy and images were collected using an Olympus C5050 digital camera. Tube formation inhibition was quantitated manually from images by recording the total number of nodes connecting 3 or more tubules. Untreated HUVECs were used as a control for normal cell growth and tube formation in Matrigel.

Assay [9] relates to rat aortic tissue. Kind of assay: Ex vivo angiogenic sprout assay (rat aortic angiogenesis assay). As to conditions: 10 μM. Format: cell-based, Sprague Dawley rats. The protocol: Explants from rat aortas were prepared by a modification of protocols previously described^42-54. In this model, the rat aortic endothelium exposed to a three dimensional matrix of ECM-derived proteins (Matrigel™), switches to a microvascular phenotype, generating branching networks of microvessels.
Briefly, thoracic aortas were excised from 2- to 4-month old Sprague Dawley rats and trimmed of remaining fat and connective tissue. Great care was taken at every stage to reduce physical damage of the aorta. Tissue was transferred to complete EBM-2 media (Cambrex) containing 2% FCS and all Singlequots™ (Cambrex) reagents except for heparin. Meanwhile, Matrigel™ (BD Biosciences) was allowed to cool on ice and once in a liquid form, 180 μL was pipetted into 48-well tissue culture plates (Nunc). The plates were incubated at 37° C. for 30 min to allow Matrigel™ to solidify.
Aortas were prepared by cutting 1 mm ring sections and then being bisected. Aortic segments were then carefully placed on top on the Matrigel™ in the centre of each well and once orientated as required, 60 μL of extra Matrigel™ was placed on top and the plate was returned to the incubator for a further 20 min. Each well was then supplemented with 1.0 mL media in the absence (control) or presence of test compounds usually at two concentrations within the range of 1-50 μM, depending on the particular compound/experiment. Cultures were replenished as appropriate every 48 h and scoring of microvessels was carried out at various timepoints up to 8-10 days. The extent of microvessel sprouting was determined by employing a scoring system from 0-5, where 0=no microvessels to 5=diffuse angiogenesis as previously described^45. Sprouting vessels were photographed using the 4× objective with an Olympus C-7070 camera and an adaptor for the eyepiece.
In some instances, to determine the potential toxicity of compounds in this assay, the viability of the tissue was assessed by withdrawing the compound/media from the culture on day 6 or 7 and adding complete media with VEGF (typically 10 ng/mL) for up to an additional 7 days. In the absence of toxicity, the viable tissue should sprout microvessels in response to the exogenous growth factor.
The inhibitory effect of compounds of the present invention on angiogenesis was assayed using the angiogenic sprout/microvessel formation (rat aortic) assay described above. Embedding of the rat aortic tissue in Matrigel™ in the absence of any inhibitor (control) yielded extensive angiogenic sprouting (as a score of 5 indicates diffuse angiogenesis) as illustrated by FIG. 1.

The test system of assay [10] is HUVEC proliferation induced by FGF-2. The assay is described as follows: Growth factor induced endothelial cell proliferation assay, FGF-2. As to conditions: 72 h; read-out: FGF-2 (IC50) inhibition of HUVEC proliferation. Format: cell-based, human.
Text: (§5) HUVEC cells were maintained and subcultured according to standard cell culture protocols essentially as described by Lonza. Briefly, cells were maintained in Lonza endothelial growth media (EGM) with recommended supplements and growth factors (VEGF, FGF2, EFG, IGF, hydrocortisone, fetal bovine serum (FBS), ascorbic acid, heparin and gentamicin). Cells were subcultured when they reached 70-80% confluence by trypsinisation and reseeding in fresh growth medium in new culture vessels at 2500 to 5000 cells/cm^2 of vessel surface area. Cell counts were performed using a haemocytometer and viable cells were visualized with trypan blue.
as §4
(§6) In the first of a series of experiments, the assay was further optimized by examining the cell density and growth factor concentration required to induce maximal proliferation by growth factors. Briefly, 100 μL of cells was added to each well at concentrations between 1-3×10^3 per well. Growth factors and test compounds were then added in 50 μL volumes at specified concentrations to obtain a final volume of 200 μL. Following incubation for 70 h, 20 μL of the CellTitre 96® Aqueous One Solution Cell Proliferation Assay (Promega) was added for 2 h prior to reading the absorbance at 490 nm to obtain OD values.

In assay [11] the test system is HUVEC proliferation induced by FGF-1. The assay is described as follows: Growth factor induced endothelial cell proliferation assay, FGF-1. Format: cell-based, human. Particulars: 72 h; read-out: FGF-1 (IC50) inhibition of HUVEC proliferation.
Text: as §5, §4, §6

Assay [12] has as its system HUVEC proliferation induced by VEGF. The assay is described as follows: Growth factor induced endothelial cell proliferation assay, VEGF. Format: cell-based, human. As to conditions: 72 h; read-out: VEGF (IC50) inhibition of HUVEC proliferation.
Text: as §5, §4, §6

Sequence of FGF-1 (P05230 whole entry, species assumed): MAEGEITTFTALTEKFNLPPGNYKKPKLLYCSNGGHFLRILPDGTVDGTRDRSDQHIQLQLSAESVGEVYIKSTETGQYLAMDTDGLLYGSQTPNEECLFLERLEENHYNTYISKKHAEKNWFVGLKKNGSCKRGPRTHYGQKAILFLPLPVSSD
Sequence of FGF-2 (P09038 143-288, species assumed): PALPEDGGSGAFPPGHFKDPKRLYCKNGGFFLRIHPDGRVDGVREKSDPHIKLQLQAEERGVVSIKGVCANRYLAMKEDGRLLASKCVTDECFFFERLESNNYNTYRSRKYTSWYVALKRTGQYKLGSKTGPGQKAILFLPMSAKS

As for `O=S(=O)(O)OCC1OC(OC2C(OCCCCCCCCCCCCn3cc(-c4ccccc4)nn3)OC(COS(=O)(=O)O)C(OS(=O)(=O)O)C2OS(=O)(=O)O)C(OS(=O)(=O)O)C(OC2OC(COS(=O)(=O)O)C(OS(=O)(=O)O)C(OC3OC(COS(=O)(=O)O)C(OS(=O)(=O)O)C(OC4OC(COS(=O)(=O)O)C(OS(=O)(=O)O)C(OS(=O)(=O)O)C4OS(=O)(=O)O)C3OS(=O)(=O)O)C2OS(=O)(=O)O)C1OS(=O)(=O)O` [Compound 8, 12-(4-Phenyl-[1,2,3]triazol-1-yl)dodecyl 2,3,4,6-tetra-O-sodium sulfonato-α-D-mannopyranosyl-(1→3)-2,4,6-tri-O-sodium sulfonato-α-D-mannopyranosyl-(1→3)-2,4,6-tri-O-sodium sulfonato-α-D-mannopyranosyl-(1→3)-2,4,6-tri-O-sodium sulfonato-α-D-mannopyranosyl-(1→2)-3,4,6-tri-O-sodium sulfonato-α-D-mannopyranoside], in assay [1], the “Residual infectivity (%) HSV-1” value was found to be 7%. For the same compound, the figures for the Kd in [2], in assay [3] and in assay [7] were 5.1 ± 1.8 nM, 253 ± 25 nM and 2.3 ± 1.3 nM, respectively. Further, the “Residual infectivity (%) RSV” value in [4] is 3%. In addition, in assay [5], the Ki was found to be 3.5 ± 0.4 nM. The “Residual infectivity (%) HSV-2” value in assay [6] amounted to 0.2%.

As to `CC(C)CCC[C@@H](C)[C@H]1CC[C@H]2[C@@H]3CCC4CC(OCCCNC(=S)N[C@@H]5O[C@H](COS(=O)(=O)[O-])[C@@H](O[C@H]6O[C@H](COS(=O)(=O)[O-])[C@@H](O[C@H]7O[C@H](COS(=O)(=O)[O-])[C@@H](OS(=O)(=O)[O-])[C@H](OS(=O)(=O)[O-])[C@H]7OS(=O)(=O)[O-])[C@H](OS(=O)(=O)[O-])[C@H]6OS(=O)(=O)[O-])[C@H](OS(=O)(=O)[O-])[C@H]5OS(=O)(=O)[O-])CC[C@]4(C)[C@H]3CC[C@]12C.[Na+].[Na+].[Na+].[Na+].[Na+].[Na+].[Na+].[Na+].[Na+].[Na+]` (stereo partly drawn) [Compound 139, 1-[(Cholestan-3-yloxy)propyl]-3-[2,3,4,6-tetra-O-sulfo-α-D-glucopyranosyl-(1→4)-2,3,6-tri-O-sulfo-α-D-glucopyranosyl-(1→4)-2,3,6-tri-O-sulfo-β-D-glucopyranoside]thiourea, decasodium salt], in [8], the “Microtubule Formation % inhibition at 10 μM” value amounted to 36%. Also, in assay [9], the “% Inhibition of Angiogenesis (10 μM)” value was determined as 92%. In addition, the dissociation constant Kd in [2] came out at 379 ± 13 nM; in [3] it was 880 ± 110 nM; in assay [7], 72 ± 12 nM. The IC50 is 1500 nM in assay [10], 2160 nM in assay [11] and 2310 nM in [12].

Usually Kd stands for the free concentration of one partner at which half of the binding sites on the other are occupied at equilibrium, for simple one-to-one binding. One may read the Ki as a measure of affinity in units of concentration, obtained from inhibition or displacement.
